In ChEMBL document CHEMBL6071129, “Strategies that regulate Hippo signaling pathway for novel anticancer therapeutics” (Eur J Med Chem, 2024):

Key:
Detroit 562 = assay: Antitumor activity against human Detroit 562 cells xenografted in SCID.Bg mouse assessed as tumor growth inhibition at 200 mg/kg, po administered twice daily; assay type: functional; settings: read-out: TGI
[1] = Inhibition of GST-tagged human TEAD1 to human His6-tagged YAP2 protein-protein interaction incubated for 2 hrs by AlphaLisa method
PC-9 = assay: Antiproliferative activity against human PC-9 cells incubated for 72 hrs by Incucyte FLR live cell analysis; assay type: functional, cell-based; settings: PC-9, 72 h
HCC4006 = assay: Antiproliferative activity against human HCC4006 cells incubated for 72 hrs by Incucyte FLR live cell analysis; assay type: functional, cell-based; settings: HCC4006, 72 h
[2] = Inhibition of YAP/TEAD (unknown origin) activity; set-up: species or system Homo sapiens
[3] = Antiproliferative activity against human OMM2.3 cells; assay type: functional, cell-based
Huh-7 = assay: Inhibition of tumor sphere formation in human Huh-7 cells; assay type: functional, cell-based
[4] = Antiproliferative activity against human Mel202 cells; assay type: functional, cell-based
[5] = Antiproliferative activity against human MP41 cells incubated for 72 hrs by CCK8 assay; assay type: functional, cell-based; settings: MP41, 72 h
[6] = Antitumor activity against human MP41 cells xenografted in BALB/c nu/nu mouse assessed as tumor growth inhibition at 30 mg/kg/day, ip administered for 21 days; assay type: functional; settings: MP41, 504 h, time 21 day, read-out: TGI
[7] = Half life in ICR mouse at 15 mg/kg, po measured upto 24 hrs by LC-MS/MS analysis; assay type: ADME, organism-based; settings: in vivo
[8] = Antiproliferative activity against human 92.1 cells incubated for 72 hrs by CCK8 assay; assay type: functional, cell-based; settings: 92-1, 72 h
[9] = tested on: Transcriptional enhancer factor TEF-1-Lipid; assay: Inhibition of His-tagged TEAD1 (unknown origin) to lipid (unknown origin) interaction preincubated for 30 mins followed by biotinylated lipid addition and measured after 60 mins by TR-FRET assay; set-up: species or system Homo sapiens
[10] = Inhibition of His-tagged TEAD1 (unknown origin) to TAZ (unknown origin) protein-protein interaction preincubated for 30 mins followed by biotinylated YAP addition and measured after 60 mins by TR-FRET assay; set-up: species or system Homo sapiens
[11] = tested on: Transcriptional enhancer factor TEF-4-Lipid; assay: Inhibition of His-tagged TEAD2 (unknown origin) to lipid (unknown origin) interaction preincubated for 30 mins followed by biotinylated lipid addition and measured after 60 mins by TR-FRET assay; set-up: species or system Homo sapiens
[12] = Antiproliferative activity against human HCC1576 cells assessed as minimum efficacy by CellTiter-Glo luminescent cell viability assay; assay type: functional
[13] = Antiproliferative activity against human VMRC-LCD cells by CellTiter-Glo luminescent cell viability assay; assay type: functional, cell-based
[14] = Antiproliferative activity against human HCC1576 cells by CellTiter-Glo luminescent cell viability assay; assay type: functional, cell-based
[15] = Inhibition of His-tagged TEAD3 (unknown origin) to YAP (unknown origin) protein-protein interaction preincubated for 30 mins followed by biotinylated YAP addition and measured after 60 mins by TR-FRET assay; set-up: species or system Homo sapiens
[16] = Inhibition of His-tagged TEAD2 (unknown origin) to YAP (unknown origin) protein-protein interaction preincubated for 30 mins followed by biotinylated YAP addition and measured after 60 mins by TR-FRET assay; set-up: species or system Homo sapiens
[17] = tested on: Transcriptional enhancer factor TEF-5-Lipid; assay: Inhibition of His-tagged TEAD3 (unknown origin) to lipid (unknown origin) interaction preincubated for 30 mins followed by biotinylated lipid addition and measured after 60 mins by TR-FRET assay; set-up: species or system Homo sapiens
[18] = Inhibition of His-tagged TEAD2 (unknown origin) to TAZ (unknown origin) protein-protein interaction preincubated for 30 mins followed by biotinylated YAP addition and measured after 60 mins by TR-FRET assay; set-up: species or system Homo sapiens
[19] = Antiproliferative activity against human VMRC-LCD cells assessed as minimum efficacy by CellTiter-Glo luminescent cell viability assay; assay type: functional
[20] = Inhibition of His-tagged TEAD3 (unknown origin) to TAZ (unknown origin) protein-protein interaction preincubated for 30 mins followed by biotinylated YAP addition and measured after 60 mins by TR-FRET assay; set-up: species or system Homo sapiens
[21] = tested on: Transcriptional enhancer factor TEF-3-Lipid; assay: Inhibition of His-tagged TEAD4 (unknown origin) to lipid (unknown origin) interaction preincubated for 30 mins followed by biotinylated lipid addition and measured after 60 mins by TR-FRET assay; set-up: species or system Homo sapiens
OVCAR-8 [22] = assay: Antiproliferative activity against human OVCAR-8 cells by CellTiter-Glo luminescent cell viability assay; assay type: functional, cell-based
[23] = Inhibition of His-tagged TEAD4 (unknown origin) to YAP (unknown origin) protein-protein interaction preincubated for 30 mins followed by biotinylated YAP addition and measured after 60 mins by TR-FRET assay; set-up: species or system Homo sapiens
[24] = Inhibition of His-tagged TEAD4 (unknown origin) to TAZ (unknown origin) protein-protein interaction preincubated for 30 mins followed by biotinylated YAP addition and measured after 60 mins by TR-FRET assay; set-up: species or system Homo sapiens
OVCAR-8 [25] = assay: Antiproliferative activity against human OVCAR-8 cells assessed as minimum efficacy by CellTiter-Glo luminescent cell viability assay; assay type: functional
[26] = Inhibition of His-tagged TEAD1 (unknown origin) to YAP (unknown origin) protein-protein interaction preincubated for 30 mins followed by biotinylated YAP addition and measured after 60 mins by TR-FRET assay; set-up: species or system Homo sapiens
[27] = biological target: Transcriptional enhancer factor TEF-3 (Homo sapiens, UniProt Q15561); assay: Inhibition of TEAD4 (unknown origin) autopalmitoylation
Chain of Transcriptional enhancer factor TEF-3 (Q15561 whole entry): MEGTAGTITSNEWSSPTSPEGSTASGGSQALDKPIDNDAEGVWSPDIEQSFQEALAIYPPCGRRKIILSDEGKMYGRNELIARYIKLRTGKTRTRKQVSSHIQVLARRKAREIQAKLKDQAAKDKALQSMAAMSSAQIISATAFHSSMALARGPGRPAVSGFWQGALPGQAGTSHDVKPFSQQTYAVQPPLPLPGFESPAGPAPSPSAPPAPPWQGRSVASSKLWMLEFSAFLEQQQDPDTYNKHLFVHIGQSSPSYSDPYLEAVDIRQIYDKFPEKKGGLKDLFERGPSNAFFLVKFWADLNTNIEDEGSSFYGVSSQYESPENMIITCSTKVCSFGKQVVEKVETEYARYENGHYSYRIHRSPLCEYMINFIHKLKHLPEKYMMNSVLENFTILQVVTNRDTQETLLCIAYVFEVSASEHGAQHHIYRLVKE

[28] = Inhibition of TEAD in HEK293 cells expressing YAP; assay type: cell-based, Homo sapiens
HCT-116 = assay: Antiproliferative activity against human HCT-116 cells incubated for 72 hrs; assay type: functional, cell-based; settings: HCT-116, 72 h
[29] = Inhibition of YAP (unknown origin) to TEAD4 (unknown origin) protein protein interaction; set-up: species or system Homo sapiens

For `COc1ncc(NS(C)(=O)=O)cc1/C=C/C1CCC(F)(F)CC1`, the inhibition in vivo at 200 mg/kg (Detroit 562) was 78%.

For `COc1cc(/C=N/N(CCO)C2=NS(=O)(=O)c3ccccc32)ccc1O`, the IC50 [1] was 25400 nM.

With `C=CC(=O)N1CCC(C)(Nc2cccc(C(F)(F)F)c2)C1` (centres undefined) the IC50 (PC-9) was under 10000 nM, the IC50 (HCC4006) was under 10000 nM and the IC50 [2] was 800 nM.

With `O=C(CSc1nnc[nH]1)Nc1ccc(C23CC4CC(CC(C4)C2)C3)cc1` the IC50 [3] was 4580 nM, the IC50 (Huh-7) was 720 nM and the IC50 [4] was 4240 nM.

For `CN1CCCC1CN1CCn2cc(-c3ccccc3)nc2[C@@H]1CC1CCCCC1` (some centres undefined), the IC50 [5] was 5100 nM, the inhibition in vivo at 30 mg/kg/day [6] was 107% and the half-life [7] was 2.4 h. It also gave an IC50 [8] of 10400 nM.

For `Cc1nccnc1-c1nn2c(=O)cc(-c3ccc(C4CCCCC4)cc3)[nH]c2c1C(=O)N1CC(CF)C1`, the IC50 [9] was 20 nM, the IC50 [10] was 50 nM and the IC50 [11] was 10 nM. For the same compound, the Emin [12] was 81%, the EC50 [13] was 22000 nM and the EC50 [14] was 290 nM. It also gave an IC50 [15] of 90 nM, an IC50 [16] of 10 nM and an IC50 [17] of 50 nM. It also gave an IC50 [18] of 10 nM, an Emin [19] of 27% and an IC50 [20] of 100 nM. For the same compound, the IC50 [21] was 10 nM, the EC50 (OVCAR-8 [22]) was 170 nM and the IC50 [23] was 30 nM. For the same compound, the IC50 [24] was 30 nM, the Emin (OVCAR-8 [25]) was 92% and the IC50 [26] was 40 nM.

With `CCOc1ccc(CN2CCCC(C(=O)c3cccc(C(F)(F)F)c3)C2)cc1CO` (centres undefined) the IC50 [27] was 1300 nM, the IC50 [28] was 2100 nM and the IC50 (HCT-116) was 27900 nM. It also gave an IC50 [29] of 21400 nM.
